These results are taken from article PMC5849061 (European journal of medicinal chemistry, 2018).

In brackets after ≈: the same amount, converted by molar mass.

The subject of one data set is MRSA USA400. Nature of the data set: Time-kill assay against MRSA USA400. The settings on record: 4 × MIC; for kill kinetics (in words): MRSA USA400.
Data set [1] deals with human colorectal cells (HRT-18). Nature of the data set: Cytotoxicity against human colorectal. The settings on record: HRT-18 cells, two hours, MTS; tested 16, 32, 64 μg/mL.
Data set [2] has as its system MRSA USA400 inside infected macrophage (J774) cells. The experiment in a line: Clearance of intracellular MRSA in infected J774 macrophages. The data set is classed as cell-based, Staphylococcus aureus. The settings on record: 24 hours.
In data set [3] the test system is murine macrophage (J774) cells. The experiment in a line: Cytotoxicity against J774 macrophage cells. The settings on record: 24-hour incubation, MTS, tested 8, 16, 32 μg/mL. The data set is classed as cell-based.
The nature of data set [4]: In vivo pharmacokinetics in rat, single IV bolus. On the set-up: species or system Sprague-Dawley rats. The settings on record: male, Sprague-Dawley, plasma, 2 μM solution, t1/2, rat, two-compartment model.
For data set [5], the system named is PMF in E. coli inverted membrane vesicles (IMVs). Nature of the data set: IMV protonophore uncoupler assay.
Data set [6] is described as follows: Metabolic stability in pooled human liver microsomes. The data set is classed as in vitro ADME. The settings on record: for Notes (metabolic stability classification): HLM. In general terms: Microsomes from liver hold many membrane-bound enzymes, among them those of drug oxidation.
The target of another data set is T1, human FPPS (HsFPPS) (Homo sapiens, UniProt P14324).
T1 sequence (P14324 1-419): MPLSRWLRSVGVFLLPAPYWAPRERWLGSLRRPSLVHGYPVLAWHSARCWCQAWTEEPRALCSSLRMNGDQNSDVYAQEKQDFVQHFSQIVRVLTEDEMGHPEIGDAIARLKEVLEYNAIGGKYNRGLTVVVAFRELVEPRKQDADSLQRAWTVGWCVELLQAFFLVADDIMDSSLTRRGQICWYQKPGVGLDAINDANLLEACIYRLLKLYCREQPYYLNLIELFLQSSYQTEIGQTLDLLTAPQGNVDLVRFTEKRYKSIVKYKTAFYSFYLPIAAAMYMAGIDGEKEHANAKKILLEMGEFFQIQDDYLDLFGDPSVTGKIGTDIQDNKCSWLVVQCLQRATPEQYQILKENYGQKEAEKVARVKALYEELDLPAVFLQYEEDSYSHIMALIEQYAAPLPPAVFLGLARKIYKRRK
Nature of the data set: Human FPPS inhibition. The data set is classed as biochemical. The settings on record: data not shown.

The next data set deals with Caco-2 cells. Nature of the data set: Caco-2 bidirectional permeability assay. The data set is classed as in vitro ADME, human. On the technique in general: Passage across Caco-2 layers is used to estimate intestinal permeability.
The test system of the next data set is MRSA USA300. The experiment in a line: Time-kill assay against MRSA USA300. The settings on record: 4 × MIC.
Another data set has as its system VRS11a (VRSA). The experiment in a line: Broth microdilution MIC/MBC against VRS11a. The data set is classed as cell-based. The settings on record: Staphylococcus aureus. (In general: In broth dilution the organism is exposed to a series of concentrations in liquid medium.)
Setting [7] is: human, pooled human liver microsomes, pH 7.4.

As to `C/C(=N\NC(=N)N)c1sc(-c2ccc(C#Cc3ccccc3)cc2)nc1C` [Compound 5], the “kill kinetics (in words)” value in the data set with MRSA USA400 is given as “bacteriostatic”. Besides, the “non-toxic up to (concentration)” value in data set [1] was determined as 32 µg/mL.

`C/C(=N\NC(=N)N)c1sc(-c2ccc(C#CC3CCCCC3)cc2)nc1C` [Compound 6, 2-(1-(2-(4-(Cyclohexylethynyl)phenyl)-4-methylthiazol-5-yl)ethylidene)hydrazine-1-carboximidamide]: in data set [2] (16 μg/mL), the “reduction of the burden of intracellular MRSA” value is “neither the alicyclic-containing derivatives 6, 7 or 9 (4 × MIC) nor vancomycin (4 × MIC) were able to produce a significant reduction”. In addition, in [1], the “non-toxic up to (concentration)” value stood at 32 µg/mL.

As for `C/C(=N\NC(=N)N)c1sc(-c2ccc(C#CC3CCCC3)cc2)nc1C` [Compound 7, 2-{1-[2-(4-(Cyclopentylethynyl)phenyl)-4-methylthiazol-5-yl]ethylidene} hydrazine-1-carboximidamide], the “non-toxic to macrophage cells up to a concentration of” value (shortened to “non-toxic to macrophage cells up”) in [3] turned out to be 8 µg/mL. Moreover, the “reduction of the burden of intracellular MRSA” value in [2] (8 μg/mL (4 × MIC)) is listed as “neither the alicyclic-containing derivatives 6, 7 or 9 (4 × MIC) nor vancomycin (4 × MIC) were able to produce a significant reduction”. The “reduction in MRSA CFU/mL after 8 hours” value with MRSA USA400 (8 hours, re-growth thereafter) is approximately 3 log10. Also, in [1], the “non-toxic up to (concentration)” value amounted to 32 µg/mL.

For orientation: half-life means how long it takes for the measured level to halve. The term microsomal CLint denotes the rate of metabolic loss divided by the concentration. Regarding `C/C(=N\NC(=N)N)c1sc(-c2ccc(C#CC3CC3)cc2)nc1C` [Compound 9, 2-(1-(2-(4-(Cyclopropylethynyl)phenyl)-4-methylthiazol-5-yl)ethylidene) hydrazine-1-carboximidamide], in [3], the “non-toxic to macrophage cells up” value was found to be 8 µg/mL. Moreover, the “reduction of the burden of intracellular MRSA” value in [2] (8 μg/mL (4 × MIC)) is recorded as “neither the alicyclic-containing derivatives 6, 7 or 9 (4 × MIC) nor vancomycin (4 × MIC) were able to produce a significant reduction”. Also, in the data set with MRSA USA400, the “time to complete eradication of MRSA USA400” value stood at 24 h and the “kill kinetics (in words)” value is “slow bactericidal activity”. In data set [4], the half-life was approximately 4.5 h. Moreover, in data set [5] (ATP-powered PMF generation), the “EC50 for PMF collapse (corresponding mass concentration)” value is 8 µg/mL. Also, the “EC50 for PMF collapse (corresponding mass concentration)” value in data set [5] (succinate/O2-powered PMF generation) is 9.5 µg/mL. Moreover, the “non-toxic up to (concentration)” value in data set [1] worked out at 32 µg/mL. In data set [6], the “Notes (metabolic stability classification)” value was “Stable to metabolism”. In [6] (setting [7]), this compound had a half-life at 0.1 μM of 4.8 h and a microsomal CLint at 0.1 μM of less than 116 µL/min/mg. Besides, the “inhibition of HsFPPS” value against human FPPS (HsFPPS) is given as “no inhibition”. For the same compound, the “Notes (permeability classification)” value in the data set on Caco-2 cells is listed as “Low permeability”.

As a reminder, the MIC is the lowest concentration that inhibits growth of the organism. A high value points to weaker potency. For the compound `CCCC#Cc1ccc(-c2nc(C)c(/C(C)=N/NC(=N)N)s2)cc1` [Compound 10, 2-(1-(4-Methyl-2-(4-(pent-1-yn-1-yl)phenyl)thiazol-5-yl)ethylidene)hydrazine-1-carboximidamide], in data set [3], the “non-toxic to macrophage cells up” value came to 16 µg/mL. For the same compound, the “kill kinetics (in words)” value with MRSA USA300 was “rapid bactericidal activity”. Also, the “reduction of the burden of intracellular MRSA” value in data set [2] (16 μg/mL) is on record as “complete eradication”. Also, the MIC in the data set on VRS11a (VRSA) is 0.5 µg/mL (≈ 1.47 µM). Further, the “non-toxic up to (concentration)” value in data set [1] came to 32 µg/mL.

Consider `CCCCCC#Cc1ccc(-c2nc(C)c(/C(C)=N/NC(=N)N)s2)cc1` [Compound 11, 2-(1-(2-(4-(Hep-1-yn-1-yl)phenyl)-4-methylthiazol-5-yl)ethylidene)hydraz-ine-1-carboximidamide], for which the “non-toxic to macrophage cells up” value in data set [3] worked out at 16 µg/mL. In addition, in the data set with MRSA USA300, the “kill kinetics (in words)” value is recorded as “rapid bactericidal activity”. The “reduction of the burden of intracellular MRSA” value in [2] (16 μg/mL) is “complete eradication”. Also, the “non-toxic up to (concentration)” value in data set [1] amounted to 32 µg/mL.

On to `CCCCCCC#Cc1ccc(-c2nc(C)c(/C(C)=N/NC(=N)N)s2)cc1` [Compound 12], for which the “non-toxic up to (concentration)” value in [1] amounted to 32 µg/mL.

Turning to `C/C(=N\NC(=N)N)c1sc(-c2ccc(C#CC(C)(C)C)cc2)nc1C` [Compound 13, 2-(1-(2-(4-(3,3-Dimethylbut-1-yn-1-yl)-phenyl)-4-methylthiazol-5-yl)ethylidene) hydrazine-1-carboximidamide], the “non-toxic up to (concentration)” value in [1] stood at 32 µg/mL.

On to `C/C(=N\NC1=NCCN1)c1sc(-c2ccc(C#CC3CC3)cc2)nc1C` [Compound 19, 2-(4-(Cyclopropylethynyl)phenyl)-5-(1-(2-(4,5-dihydro-1H-imidazol-2-yl)hydrazono)ethyl)-4-methylthiazole], for which, in [6], the “Notes (metabolic stability classification)” value is on record as “Stable to metabolism”.

Consider `C/C(=N\NC1=NCCN1)c1sc(-c2ccc(C#CC(C)(C)C)cc2)nc1C` [Compound 23, 5-(1-(2-(4,5-Dihydro-1H-imidazol-2-yl)hydrazono)ethyl)-2-(4-(3,3-dimethylbut-1-yn-1-yl)phenyl)-4-methylthiazole], for which the “non-toxic up to (concentration)” value in data set [1] was determined as 32 µg/mL.

With `CN[C@H](CC(C)C)C(=O)N[C@H]1C(=O)N[C@@H](CC(N)=O)C(=O)N[C@H]2C(=O)N[C@H]3C(=O)N[C@H](C(=O)N[C@H](C(=O)O)c4cc(O)cc(O)c4-c4cc3ccc4O)[C@H](O)c3ccc(c(Cl)c3)Oc3cc2cc(c3O[C@@H]2O[C@H](CO)[C@@H](O)[C@H](O)[C@H]2O[C@H]2C[C@](C)(N)[C@H](O)[C@H](C)O2)Oc2ccc(cc2Cl)[C@H]1O` [Vancomycin, reference compound], in the data set on MRSA USA400, the “time to complete eradication of MRSA USA400” value came to 24 h.
